In patent US8937187B2, “Method for depigmenting keratin materials using resorcinol derivatives” (L'Oreal, priority 2010, dated 2015):

Tests used:
[1] = tested on: co-culture of keratinocytes and melanocytes; experiment: Inhibitory activity on melanin synthesis (constitutive melanogenesis), ratio of thiouracil to leucine incorporation; format: cell-based; settings: for IC50: thiouracil/leucine incorporation ratio relative to 100% of the control, read-out: IC50 (concentration for which 50% of the synthesis of melanin is inhibited)
Procedure: The modulatory effect of compound 1 on melanogenesis was measured by the method described in patent FR-A-2 734 825 and also in the article by R. Schmidt, P. Krien and M. Régnier, Anal. Biochem., 235(2), 113-18, 1996. This test is carried out on a co-culture of keratinocytes and melanocytes.
For the compound tested, the following parameters were ascertained: • the cytotoxicity, by estimation of the incorporation of leucine, • the inhibitory activity on melanin synthesis, by estimating the ratio of incorporation of thiouracil to the incorporation of leucine, relative to 100% of the control (the control corresponds to the test carried out without compound tested). The IC50 values (concentration for which 50% of the synthesis of melanin is inhibited) were ascertained.
The test was also carried out with arbutin and kojic acid, which are known depigmenting compounds.

[2] = tested on: co-culture of keratinocytes and melanocytes; experiment: Cytotoxicity by estimation of the incorporation of leucine; format: cell-based
Procedure: The modulatory effect of compound 1 on melanogenesis was measured by the method described in patent FR-[…]. Schmidt, P. […], Anal. Biochem., 235(2), 113-18, 1996. This test is carried out on a co-culture of keratinocytes and melanocytes. […] The test was also carried out with arbutin and kojic acid, which are known depigmenting compounds.

IC50 [1] | melting point | Compound | Cytotoxicity on co-culture [2] | efficacy in inhibiting melanogenesis compared with arbutin and kojic acid [1]
8.3 µM |  | CCCCN1C(=O)CC(Cc2ccc(O)cc2O)C1=O (centres unmarked) [drawing 126] | Non-cytotoxic | 
 |  | O=C1CC(Cc2ccc(O)cc2O)C(=O)N1 (centres unmarked) [Compound 1, 3-(2,4-dihydroxybenzyl)pyrrolidine-2,5-dione] |  | more effective than arbutin and kojic acid
 |  | O=C1CC(Cc2ccc(O)cc2O)C(=O)N1CCO (centres unmarked) [Compound 12, 3-(2,4-dihydroxybenzyl)-1-(2-hydroxyethyl)pyrrolidine-2,5-dione] |  | more effective than arbutin and kojic acid
> 500 µM |  | OC[C@H]1O[C@@H](Oc2ccc(O)cc2)[C@H](O)[C@@H](O)[C@@H]1O [Arbutin, reference compound] | Non-cytotoxic | 
52 µM |  | O=C1CC(=O)C(Cc2ccc(O)cc2O)C1 (centres unmarked) | Non-cytotoxic | 
9.2 µM |  | CCOC(=O)CN1C(=O)CC(Cc2ccc(O)cc2O)C1=O (centres unmarked) [drawing 128] | Non-cytotoxic | 
14.9 µM |  | O=C1CC(Cc2ccc(O)cc2O)C(=O)N1CCO (centres unmarked) [drawing 129] | Non-cytotoxic | 
> 500 µM |  | O=c1cc(CO)occ1O [Kojic acid, reference compound] | 100 µM | 
 |  | CCOC(=O)CN1C(=O)CC(Cc2ccc(O)cc2O)C1=O (centres unmarked) [Compound 32, ethyl [3-(2,4-dihydroxybenzyl)-2,5-dioxopyrrolidin-1-yl]acetate] |  | more effective than arbutin and kojic acid
 | 122 to 123 °C | CCCCN1C(=O)CC(Cc2ccc(O)cc2O)C1=O (centres unmarked) [Compound 7, 3-(2,4-dihydroxybenzyl)-1-butylpyrrolidine-2,5-dione] |  | more effective than arbutin and kojic acid
